According to ChEMBL document CHEMBL1140986, “Sidechain-linked inhibitors of HIV-1 protease dimerization” (Bioorg Med Chem, 2009):
Converted amounts (≈) assume the structure as drawn. The source made the active and inactive calls. The calls are words filed in the database; no cut-off is given here. Non-standard residues stand in square brackets, D forms with d. Residues, ends and D or L forms follow the SMILES beside them. *: point of attachment. C16 diacid = O=C(O)CCCCCCCCCCCCCCC(=O)*; aThr = C[C@H](O)[C@H](N)C(=O)O

Assays:
Protease [1] = target: T1, Protease (Human immunodeficiency virus 1, UniProt Q9YQ12); assay: Inhibition of HIV1 protease by continuous fluorometric assay
Protease [2] = target: T1, Protease; assay: Inhibition of HIV1 protease dimerization by Zhang-Poorman kinetic assay
[3] = Solubility in water; assay type: physicochemical
[4] = target: Protease (Human immunodeficiency virus 1) (UniProt Q9YQ12); assay: Inhibition of HIV1 protease dimerization at 65.3 uM by Zhang-Poorman kinetic assay
[5] = target: Protease (Human immunodeficiency virus 1) (UniProt Q9YQ12); assay: Binding affinity to HIV1 protease allosteric site at 10 to 50 uM after 1 hr by fluorescence-based cross competition kinetic assay in presence of acetyl-pepstatin
Protease [6] = target: T1, Protease; assay: Inhibition of HIV1 protease by competitive inhibition assay
[7] = target: Protease (Human immunodeficiency virus 1) (UniProt Q9YQ12); assay: Inhibition of HIV1 protease at 130 uM by competitive Lineweaver-Burke plot
[8] = target: Protease (Human immunodeficiency virus 1) (UniProt Q9YQ12); assay: Binding affinity to HIV1 protease active site at 10 to 50 uM after 1 hr by fluorescence-based cross competition kinetic assay in presence of acetyl-pepstatin

Row | IC50 (Protease [1]) [µM] | Ki (Protease [2]) [µM] | SMILES | also measured
1 | 2.9 | 1.25 | CC(C)C[C@H](NC(=O)[C@H](CSCCOCCOCCSC[C@H](NC(=O)COc1ccccc1)C(=O)N[C@@H](Cc1ccccc1)C(=O)O)NC(=O)COc1ccccc1)C(=O)N[C@@H](Cc1ccccc1)C(N)=O | 
2 | 64 | 40.1 | CC[C@@H](C)[C@H](NC(=O)[C@H](CSCCOCCOCCSC[C@H](NC(=O)CCCCC1CCCCC1)C(=O)N[C@@H](Cc1ccccc1)C(=O)O)NC(=O)CCCCC1CCCCC1)C(=O)N[C@@H](Cc1ccccc1)C(N)=O | 
3 | 675 | 88 | CC(C)C[C@H](NC(=O)[C@H](CSCCOCCOCCSC[C@H](NC(=O)CCCCC1CCCCC1)C(=O)N[C@@H](Cc1ccccc1)C(=O)O)NC(=O)CCCCC1CCCCC1)C(=O)N[C@@H](Cc1ccccc1)C(N)=O | 
4 | 19.5 |  | CC(C)C[C@H](NC(=O)[C@H](CSCCOCCOCCSC[C@H](NC(=O)C1CCCCC1)C(=O)N[C@@H](Cc1ccccc1)C(=O)O)NC(=O)C1CCCCC1)C(=O)N[C@@H](Cc1ccccc1)C(N)=O | 
5 | 4 | 1.3 | CCCCCCC(=O)N[C@@H](CSCCOCCOCCSC[C@H](NC(=O)CCCCCC)C(=O)N[C@@H](CC(C)C)C(=O)N[C@@H](Cc1ccccc1)C(N)=O)C(=O)N[C@@H](Cc1ccccc1)C(=O)O | solubility [3]: 80 µM (≈ 79 µg/mL)
6 | 6.5 |  | CC(C)C[C@H](NC(=O)[C@H](CSCCOCCOCCSC[C@H](NC(=O)CCc1ccccc1)C(=O)N[C@@H](Cc1ccccc1)C(=O)O)NC(=O)CCc1ccccc1)C(=O)N[C@@H](Cc1ccccc1)C(N)=O | 
7 | 87 | 8.3 | CCCC(=O)N[C@@H](CSCCOCCOCCSC[C@H](NC(=O)CCC)C(=O)N[C@@H](CC(C)C)C(=O)N[C@@H](Cc1ccccc1)C(N)=O)C(=O)N[C@@H](Cc1ccccc1)C(=O)O | 
8 | 130 |  | CCC(=O)N[C@@H](CSCCOCCOCCSC[C@H](NC(=O)CC)C(=O)N[C@@H](CC(C)C)C(=O)N[C@@H](Cc1ccccc1)C(N)=O)C(=O)N[C@@H](Cc1ccccc1)C(=O)O | Activity [4]: inactive; Activity [5]: Active; Ki (Protease [6]): 16.9 µM; Activity [7]: Active; Activity [8]: inactive
9 | 9.5 |  | CC(C)C[C@H](NC(=O)[C@H](CSCCOCCOCCSC[C@H](NC(=O)CC1CCCCC1)C(=O)N[C@@H](Cc1ccccc1)C(=O)O)NC(=O)CC1CCCCC1)C(=O)N[C@@H](Cc1ccccc1)C(N)=O | 
10 | 1.2 | 510 | CCCCCCC(=O)N[C@@H](CSCCOCCOCCSC[C@H](NC(=O)CCCCCC)C(=O)N[C@H](C(=O)N[C@@H](Cc1ccccc1)C(N)=O)[C@H](C)CC)C(=O)N[C@@H](Cc1ccccc1)C(=O)O | 
11 | 50 | 6.8 | CCCCC(=O)N[C@@H](CSCCOCCOCCSC[C@H](NC(=O)CCCC)C(=O)N[C@@H](CC(C)C)C(=O)N[C@@H](Cc1ccccc1)C(N)=O)C(=O)N[C@@H](Cc1ccccc1)C(=O)O | 
12 |  |  | CC(C)C[C@H](NC(=O)[C@@H](NC(=O)CCCCCCCCCCCCCCC(=O)N[C@@H](CC(N)=O)C(=O)N[C@@H](Cc1ccccc1)C(=O)O)[C@@H](C)O)C(=O)N[C@@H](Cc1ccccc1)C(N)=O ({Phe-Asn-C16 diacid}-Thr-Leu-Phe-NH2) | solubility [3]: 1 µM (≈ 0.908 µg/mL)
13 | 2.5 |  | CC(C)C[C@H](NC(=O)[C@H](CSCCOCCOCCSC[C@H](NC(=O)Cc1ccccc1)C(=O)N[C@@H](Cc1ccccc1)C(=O)O)NC(=O)Cc1ccccc1)C(=O)N[C@@H](Cc1ccccc1)C(N)=O | 
14 |  | 3 | CC(C)C[C@H](NC(=O)[C@@H](NC(=O)CCCCCCCCCCCCCCC(=O)N[C@@H](CC(N)=O)C(=O)N[C@@H](Cc1ccccc1)C(=O)O)[C@H](C)O)C(=O)N[C@@H](Cc1ccccc1)C(N)=O ({Phe-Asn-C16 diacid}-[aThr]-Leu-Phe-NH2) | 
15 | 2.5 |  | CC(C)C[C@H](NC(=O)[C@H](CSCCOCCOCCSC[C@H](NC(=O)CCC1CCCCC1)C(=O)N[C@@H](Cc1ccccc1)C(=O)O)NC(=O)CCC1CCCCC1)C(=O)N[C@@H](Cc1ccccc1)C(N)=O | 
16 | 14.9 | 2.3 | CCCCCC(=O)N[C@@H](CSCCOCCOCCSC[C@H](NC(=O)CCCCC)C(=O)N[C@@H](CC(C)C)C(=O)N[C@@H](Cc1ccccc1)C(N)=O)C(=O)N[C@@H](Cc1ccccc1)C(=O)O | solubility [3]: 90 µM (≈ 86.3 µg/mL)
